Broadly, the melting point is the temperature, or range, at which the solid turns liquid. Turning to `Cc1cc(OCC(F)(F)F)c(N)c(OCC(F)(F)F)n1`, the melting point lay in the range of 53.5 to 53.8 °C.

`NC(=O)c1c(C(=O)O)cnn1-c1cccc(Cl)c1` had a melting point of 223 to 225 °C.

As for `CN(C)C=NS(=O)(=O)c1ccc(Br)cc1`, the melting point fell in the range of 141 to 143 °C.

The compound `CC(C)OC(=O)c1cc(-c2nn(C)c(C(F)(F)F)c2C(F)F)c(F)cc1Cl` gave a melting point of 57 °C.

On to `COc1cc(O)cc(OC)c1/C=C/S(=O)(=O)CS(=O)(=O)/C=C/c1c(OC)cc(O)cc1OC`, for which the melting point lay in the range of 148 to 150 °C.

Compound `CCc1ccc(C(=O)Nc2ccc(F)c(F)c2)cc1N` showed a melting point of 108 to 110 °C.

`COc1ccc(CS(=O)(=O)CC(=O)O)cc1[N+](=O)[O-]` yielded a melting point of 96 to 98 °C.

As to `CC(=CCCCC(C)(C)O)c1cccc(C=Cc2cc(O)cc(O)c2)c1`, the melting point was 55 to 60 °C.

`O=C(Nc1ccc(CN2CCNCC2)cc1)c1cc(=O)c2ccccc2o1` gave a melting point of 138 to 140 °C.

As for `CC(=O)N[C@H](COC(F)F)C(=O)NCc1ccc(F)cc1`, the melting point is 163 °C.

Consider `O=C1N(CCCCCl)CCN1C1CCCCC1`, for which the melting point was 30 to 35 °C.

In the case of `CCOC(=O)C(Cl)(Cl)CCCCCCCCCCCCSc1ccc(NC(=O)c2ccc(Cl)cc2)cc1`, the melting point lay in the range of 130 to 131 °C.

As for `O=C(NC1=Cc2cncn2CN=C1)c1ccccc1`, the melting point fell in the range of 158 to 160 °C.

Consider `CCNC(=O)c1c(C)cccc1N(C)C(C)(C)C`, for which the melting point is 101 to 103 °C.

In the case of `O=c1cc(CN2CCOCC2)oc(-c2ccc(O)cc2)c1`, the melting point was in the range of 162 to 164 °C.

Compound `O=c1oc2ccc(-c3ccc(F)cc3F)cc2c(=O)n1-c1ccccc1C(F)(F)F` yielded a melting point of 200 to 201 °C.

`CCOC(=O)c1ccc(NCC=Cc2ccccc2)cc1` yielded a melting point of 123 to 131 °C.

In turn, `O=C(O)COc1ccc(CC2SC(=O)NC2=O)cc1` (configuration not stated) gave a melting point of 181 to 183 °C.

Take `COc1ccc2c(c1)c(CC(=O)OCC(=O)N(C)CCO[N+](=O)[O-])c(C)n2C(=O)c1ccc(Cl)cc1`: the melting point fell in the range of 118 to 122 °C.

In turn, `Cc1ccc2nc(-c3ccccc3)oc2c1` had a melting point of 93 °C.

Take `Cc1ccc(N2CN(C)CNC2=S)c(C)c1`: the melting point lay in the range of 140 to 143 °C.

As to `COC1=CC(OC)OC(C)C1=O` (configuration not stated), the melting point fell in the range of 73 to 74.5 °C.

Compound `CCc1nc2c(C)cc(C)nc2n1Cc1ccc(C(=C(c2nnn[nH]2)S(C)=O)c2ccccc2)cc1` (configuration not stated) came in with a melting point of 141 to 144 °C.

For the compound `COC(=O)c1ccc2occ(-c3ccc(SC)cc3)c2c1`, the melting point lay within 95 to 96 °C.

`CCOC(=O)c1cnc2n(c1=O)-c1ccccc1N(C(=O)OCC)C2` came in with a melting point of 140 to 142 °C.

The compound `COc1cc2c(c3c1OC(C)(C)C3)C(c1ccc(=O)n(-c3cc(C)ccn3)c1)=NC(C)(C)C2` displayed a melting point of 161 to 162 °C.

For the compound `CCC(Oc1ccc(C=Cc2nc[nH]n2)cc1)C(N)=O` (configuration not stated), the melting point was determined as 150 °C.

Regarding `CCC(C)(C)c1ccc(OCCCNC(=O)c2cc(N)c3ccccc3c2O)c(C(C)(C)CC)c1`, the melting point is 120 to 123 °C.

For the compound `N#Cc1ccc(OCC(=O)O)cc1F`, the melting point was 150 to 152 °C.

The compound `Cc1cc(OCc2nc(-c3ccc(C(F)(F)F)cc3)no2)ccc1OC(C)(C)C(=O)O` had a melting point of 170 °C.

Compound `COC(=O)c1cc(CCC(=O)NCc2ccccc2)ccc1O` registered a melting point of 139 to 140 °C.

As to `CC(C)(C)OC(=O)N(CC#N)CCN(CC#N)C(=O)OC(C)(C)C`, the melting point lay in the range of 112 to 113 °C.

The compound `Nc1cc(Br)nc(Br)c1` showed a melting point of 184 to 186 °C.

With `COC(=O)c1ccc(OCC(=O)c2ccc3c(c2)C(C)(C)CCS3)cc1O`, the melting point was 135 to 137 °C.

`COC(=O)C(C)(SC)c1ccc(N2CCCCC2)c(Cl)c1` (configuration not stated) came in with a melting point of 83.5 to 85 °C.

In the case of `O=C(O)CCCCCCCCCCOc1ccccc1OCc1ccccc1`, the melting point lay within 62 to 63 °C.

Compound `CCCCc1nc2c(N)nc3cc(-c4ccc(OCCC)cc4)ccc3c2n1CC(C)C` returned a melting point of 194 to 197 °C.
